{"source": "patent US6207656A", "about": "“Vitamin D analogues and their neuronal effects” (Cephalon, Inc., priority 1998, dated 2001)", "key": {"[1]": {"test_system": "acrylamide-induced peripheral neuropathy in rats", "experiment": "Acrylamide-induced peripheral neuropathy, landing foot spread", "type": "in vivo, rat", "protocol": "Peripheral neuropathy was induced in rats by the administration of the neurotoxin acrylamide, 50 mg/kg, IP, 3×/week. The acrylamide treatment occurred during the first three weeks of the experiment. After acrylamide was discontinued, the animals were allowed to recover for an additional 3-5 weeks. The ability of Compound (A) or Compound (B) to either slow the onset of peripheral neuropathy, reduce the severity of the peripheral neuropathy or enhance the recovery from peripheral neuropathy was determined. The compounds were administered either orally (Compound (A)) or via subcutaneous Alzet mini-pumps (I month model)(Compounds (A) and (B)) beginning 3 days prior to the first dose of acrylamide. Compound (A) was administered orally at doses of 0.3, 1.0 and 3.0 μg/kg/day and by mini-pump at doses of 10, 55, 100, 330 and 550 ng/day. Compound (B) was administered by mini-pump at doses of 10, 33, 100, 330 and 1000 ng/day. These dose ranges were selected to limit toxicity and to bracket the dose range used in fimbria fornix lesion experiments. The mini-pumps were replaced at the end of the fourth week so that the test compound was on board for the duration of the experiment. In FIG. 11B, the data from FIG. 11A was averaged."}, "BDNF mRNA": {"test_system": "BDNF mRNA", "experiment": "Induction of BDNF mRNA expression in rats", "type": "in vivo, Sprague Dawley rats", "conditions": "0.3, 1.0 and 3.0 μg/kg oral, 8 days; hippocampus (FIG. 1)", "protocol": "Young adult male Sprague Dawley rats (250-350 g) were administered Compound (A), Compound (E), or a vehicle (80% propylene glycol (human formulation grade; Spectrum Quality Products, Inc., Gardena, Calif., catalog #PR130-55003) and 20% phosphate buffer, pH 9.2) at doses ranging from 0.1 to 5.5 μg/kg daily by oral gavage for eight days. Five hours after the last dose, the animals were sacrificed by decapitation. Each brain was quickly removed and chilled in ice-cold saline. The brain was cut into 2 mm thick coronal sections. Portions of the hippocampus, encompassing the CA1 region, and the medial septum were removed by punching 2 mm^3 sections using a calibrated tissue punch. Punched sections were immediately frozen on dry ice and then stored at -70° C. RNA was prepared from dissected tissue pieces.\nPunches of tissue were homogenized in […] RNAzolB™ (Bioteex Laboratories, Houston, Tex.) using a homogenizer (Tekmar, Germany) until fully homogenized and then 250 μl RNAzilB™ was added. Typically, punches from the corresponding regions of brains of 2 to 3 animals were combined together. RNA was prepared as recommended by the manufacturer (Biotecx Laboratories). […] Concentration of RNA was measured spectrophotometrically and the quality of RNA was visualized on a nondenaturing agarose gel. […]"}, "hippocampal ChAT": {"test_system": "hippocampal ChAT", "experiment": "Fimbria fornix lesion model, hippocampal ChAT activity", "type": "in vivo, rat", "conditions": "oral gavage daily 14 days, FIGS. 4 to 8; * p<0.05 vs vehicle-treated lesioned controls", "excerpt": "The fimbria fornix lesion model is an established protocol for assessing cholinergic neuronal survival in the basal forebrain. […] Contained within the region of the brain 10 are cholinergic neurons 16. A healthy cholinergic neuron has a cell body 18, and one or more axons 20. Each of the axons 20 have a free end, referred to as a terminal 22, that extends into the hippocampus 14. In the fimbria fornix lesion model, damaged cholinergic neurons 24 are produced by transecting a portion of the axons 20 at a location 26 between the hippocampus 14 and the cell body 18. As a result of this transection, damaged cell bodies 28 are produced that no longer have cholinergic axons 30 and terminals 32. These damaged cell bodies 28, also lose cholinergic cell body markers 34 and stop producing ChAT. The fimbria fornix lesion model is used to study methods of restoring ChAT production, such as through stimulating increased production of ChAT in the healthy cholinergic neurons, and/or through restoring normal functioning of the damaged cholinergic neurons 24.\nFor the studies described herein, animals were anesthetized with pentobarbital and placed in a stereotaxic apparatus. The skull was opened on the left side, a knife was positioned 1.2 mm posterior to bregma and 0.6 mm lateral to the midline. The knife was lowered to 4.5 mm below the dura into the brain and moved laterally 2 mm partially transecting the fimbria fornix. After 14 days of administration of the test compounds by oral gavage, the hippocampus was removed and homogenized.\nThe hippocampal ChAT activity is expressed as a percentage of the hippocampal ChAT activity of the […] control side (i.e., lesion control) in FIGS. 4 to 8."}}, "note": "Entries after “also recorded” stand apart in the source; their conditions may differ."}
{"smiles": "C=C1/C(=C\\C=C2/CCC[C@]3(C)[C@@H]([C@@H](C)[C@@H](C#CCC(O)(CC)CC)OCC)CC[C@@H]23)C[C@@H](O)C[C@@H]1O", "note": "[Compound (A), 1(S),3(R)-dihydroxy-20(R)-(1-ethoxy-5-ethyl-5-hydroxy-2-heptyn-1-yl)-9,10-seco-pregna-5(Z),7(E),10(19)-triene]", "values": [{"measurement": "development of peripheral neuropathy", "setting": "[1]; continuously pumped (mini-pump)", "result": "did not prevent the development of the acrylamide-induced peripheral neuropathy"}, {"measurement": "recovery from peripheral neuropathy", "setting": "[1]; mini-pump", "result": "improved recovery; also recorded: an effect upon the recovery from the lesion was apparent"}, {"measurement": "landing foot spread", "setting": "[1]; mini-pump, recovery period", "result": "effective in reducing landing foot spread, but only during the recovery period; also recorded: decreased landing foot spread during the recovery period"}, {"measurement": "development of peripheral neuropathy", "setting": "[1]; oral", "result": "prevented the development of acrylamide-induced peripheral neuropathy"}, {"measurement": "severity of neuropathy and functional recovery", "setting": "[1]; oral", "result": "dose-dependent effects on both the severity of the acrylamide-induced peripheral neuropathy as well as the ability of the animals to functionally recover from the lesion"}, {"measurement": "landing foot spread", "setting": "[1]; oral 3.0 μg/kg/day", "result": "statistically significant decrease in landing foot spread"}, {"measurement": "time course of decrease in landing foot spread", "setting": "[1]; oral 3.0 μg/kg/day, onset days 1-24, recovery days 24-42", "result": "occurred during the onset of the lesion (days 1-24) and were sustained through the recovery phase"}, {"measurement": "landing foot spread", "setting": "[1]; oral, FIGS. 11A-11C legend", "result": "decreases landing foot spread"}, {"measurement": "production of BDNF mRNA", "setting": "BDNF mRNA", "result": "facilitated the production of NRT-like mRNA, GDNF mRNA, NT-3 mRNA, and BDNF mRNA"}, {"measurement": "hippocampal ChAT activity vs lesioned controls", "setting": "hippocampal ChAT", "result": "significant increase in CHAT activity"}]}
